Consider 13 molecules from patent US10160762B2, “6-alkyl dihydropyrazolopyrimidinone compounds as PDE2 inhibitors” (Merck Sharp & Dohme Corp., priority 2015, dated 2018).

Where two headings read alike, the source gives them in different places.

The target in the experiment is T1, Rhesus PDE2A3 (Macaca mulatta, UniProt B3VTJ2).
T1 construct: made in house; host or cells: AD293 cells, transient transfection; supernatant of sonicated lysate
T1 sequence (B3VTJ2 1-941): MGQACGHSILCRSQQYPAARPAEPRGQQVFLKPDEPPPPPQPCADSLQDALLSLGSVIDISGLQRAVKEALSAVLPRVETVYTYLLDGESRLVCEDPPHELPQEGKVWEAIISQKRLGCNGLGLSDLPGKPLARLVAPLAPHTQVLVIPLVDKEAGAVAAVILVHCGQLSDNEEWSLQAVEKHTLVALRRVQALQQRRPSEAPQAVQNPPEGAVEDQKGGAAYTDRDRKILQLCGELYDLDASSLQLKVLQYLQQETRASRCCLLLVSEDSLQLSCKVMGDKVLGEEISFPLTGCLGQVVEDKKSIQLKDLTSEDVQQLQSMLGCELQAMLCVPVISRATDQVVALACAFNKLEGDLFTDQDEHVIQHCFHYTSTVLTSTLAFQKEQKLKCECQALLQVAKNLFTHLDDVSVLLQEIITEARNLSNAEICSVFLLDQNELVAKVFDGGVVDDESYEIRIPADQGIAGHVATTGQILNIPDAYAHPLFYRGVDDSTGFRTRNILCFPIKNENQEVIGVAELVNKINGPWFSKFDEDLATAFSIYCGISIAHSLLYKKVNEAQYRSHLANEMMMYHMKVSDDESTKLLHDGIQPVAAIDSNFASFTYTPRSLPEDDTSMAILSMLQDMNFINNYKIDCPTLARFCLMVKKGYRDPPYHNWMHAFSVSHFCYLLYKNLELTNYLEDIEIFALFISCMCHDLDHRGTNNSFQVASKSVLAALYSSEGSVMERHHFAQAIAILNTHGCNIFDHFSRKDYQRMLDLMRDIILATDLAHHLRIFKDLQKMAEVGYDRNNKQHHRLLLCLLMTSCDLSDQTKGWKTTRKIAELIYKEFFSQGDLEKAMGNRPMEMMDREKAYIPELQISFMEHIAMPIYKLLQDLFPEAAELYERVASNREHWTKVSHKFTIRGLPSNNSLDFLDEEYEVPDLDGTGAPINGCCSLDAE
Put plainly: PDE2 fluorescence polarization (IMAP FP) inhibition assay, rhesus PDE2A3. It is filed as biochemical, rhesus macaque. The procedure:
The activity of the compounds in accordance with the present invention as PDE2 inhibitors may be readily determined using a fluorescence polarization (FP) methodology (Huang, W., et al., J. Biomol Screen, 2002, 7: 215).
The PDE2 inhibitory activity of the compounds of the present invention was determined in accordance with the following experimental method. Rhesus PDE2A3 was amplified from rhesus macaque brain cDNA (Biochain Institute, Hayward, Calif.) using primers based on human PDE2A sequence (accession NM_002599.3) where the forward primer containing a Kozak consensus was 5′-[…]-3′ and the reverse primer was 5′-[…]-3′. Amplification with Easy-A High-Fidelity PCR cloning enzyme (Stratagene, La Jolla, Calif.) was 95° C. for 2 minutes followed by thirty three cycles of 95° C. for 40 seconds, 52° C. for 30 seconds, and 72° C. for 2 minutes 48 seconds. Final extension was 72° C. for 7 minutes. The PCR product was TA cloned into pcDNA3.3-TOPO (Invitrogen, Carlsbad, Calif.) according to standard protocol. A consensus sequence was developed from multiple clones and then deposited into GenBank (EU812167). AD293 cells (Stratagene, La Jolla, Calif.) with 70-80% confluency were transiently transfected with rhesus PDE2A3/pcDNA3.3-TOPO using Lipofectamine 2000 according to manufacturer specifications (Invitrogen, Carlsbad, Calif.). Cells were harvested 48 hours post-transfection and lysed by sonication (setting 3, 10×5 sec pulses) in a buffer containing 20 mM HEPES pH 7.4, 1 mM EDTA and Complete Protease Inhibitor Cocktail Tablets (Roche, Indianapolis, Ind.). Lysate was collected by centrifugation at 75,000×g for 20 minutes at 4° C. and supernatant utilized for evaluation of PDE2 activity. The fluorescence polarization assay for cyclic nucleotide phosphodiesterases was performed using an IMAP® FP kit supplied by Molecular Devices, Sunnyvale, Calif. (product #R8139). […] Assays were performed at room temperature in 384-well microtiter plates with an incubation volume of 20.2 μL. Solutions of test compounds were prepared in DMSO and serially diluted with DMSO to yield 8 μL of each of 10 solutions differing by 3-fold in concentration, at 32 serial dilutions per plate. […] 0% of inhibition is determined by using DMSO (1% final concentrations).
A Labcyte Echo 555 (Labcyte, Sunnyvale, Calif.) is used to dispense 200 nL from each well of the titration plate to the 384 well assay plate. Ten microliters of a solution of enzyme (1/2000 final dilution from aliquots; sufficient to produce 20% substrate conversion) was added to the assay plate. Next 10 uL of a separate solution of the substrate FAM-labeled cAMP (50 nM final concentration product # R7506 from Molecular Devices) and the activator cGMP (1 uM final concentration), prepared in the assay buffer (10 mM Tris HCl, pH 7.2, 10 mM MgCl2, 0.05% NaN3 0.01% Tween-20, and 1 mM DTT) was added to the assay plate and shaken to mix. The reaction is allowed to proceed at room temperature for 60 minutes. A binding solution is then made from the kit components, comprised of 80% Solution A, 20% Solution B and binding reagent at a volume of 1/600 the total binding solution. The enzymatic reaction is stopped by addition of 60 μL of the binding solution to each well of the assay plates and the plates are sealed and shaken for 30 seconds. The plate was incubated at room temperature for at least one hour prior to determining the fluorescence polarization (FP). The parallel and perpendicular fluorescence of each well of the plate was measured using a Tecan Genios Pro plate reader (Tecan, Switzerland) or Perkin Elmer EnVision™ plate reader (Waltham, Mass.). Fluorescence polarization (mP) was calculated from the parallel (S) and perpendicular (P) fluorescence of each sample well and the analogous values for the median control well, containing only substrate (So and Po), using the following equation: Polarization(mP)=1000*(S/So−P/Po)/(S/So+P/Po).
(In general: In fluorescence polarisation assays a small probe gives low polarisation when free and higher when bound to something large.)

[1] abbreviates: Lab B, read-out: Rhesus PDE2 Ki (nM) Lab B.

Turning to `Cc1nc2c(c(C)nn2C(C)CN(C)c2ccc(C(F)(F)F)cc2)c(=O)[nH]1` (stereo not shown) [Example 331, 3,6-Dimethyl-1-(1-(methyl(4-(trifluoromethyl)phenyl)amino)propan-2-yl)-1H-pyrazolo[3,4-d]pyrimidin-4(5H)-one], the Ki under setting [1] came out at 1440 nM. In the case of `Cc1nc2c(c(CN)nn2C(C)c2ccc(C(F)(F)F)cc2)c(=O)[nH]1` (single isomer, unassigned) [Example 274], the Ki under setting [1] was approximately 14500 nM.

With `Cc1nc2c(c(CO)nn2C(c2ccc(C(F)(F)F)cc2)C(C)(C)C)c(=O)[nH]1` (single isomer, unassigned) [Example 82, (R)- or (S)-1-(2,2-Dimethyl-1-(4-(trifluoromethyl)phenyl)-propyl)-3-(hydroxymethyl)-6-methyl-1H-pyrazolo[3,4-d]pyrimidin-4(5H)-one], the Ki under setting [1] is 289 nM. For the molecule `Cc1nc2c(c(C(F)F)nn2C(C)c2ccc(C(F)(F)F)cc2)c(=O)[nH]1` (single isomer, unassigned) [Example 175], under setting [1], the Ki stood at 419 nM.

Turning to `Cc1nc2c(c(CC(F)(F)F)nn2C(c2ccc(C(F)(F)F)cc2)C(C)(C)C)c(=O)[nH]1` (single isomer, unassigned) [Example 56, (R)- or (S)-1-(2,2-Dimethyl-1-(4-(trifluoromethyl)phenyl)propyl)-6-methyl-3-(2,2,2-trifluoroethyl)-1H-pyrazolo[3,4-d]pyrimidin-4(5H)-one], the inhibition constant (Ki) under setting [1] was 6020 nM. Still for that read-out and setting: as for `Cc1nc2c(c(CO)nn2C(c2ccc(C(F)(F)F)c(F)c2)C(C)(C)C)c(=O)[nH]1` (single isomer, unassigned) [Example 128, (R)- or (S)-1-(1-(3-Fluoro-4-(trifluoromethyl)phenyl)-2,2-dimethylpropyl)-3-(hydroxyl-methyl)-6-methyl-1H-pyrazolo-[3,4-d]pyrimidin-4(5H)-one], the figure is 413 nM. For `Cc1nc2c(c(C)nn2CC(=O)Nc2ccc(C(F)(F)F)cc2)c(=O)[nH]1` [Example 337, 2-(3,6-Dimethyl-4-oxo-4,5-dihydro-1H-pyrazolo[3,4-d]pyrimidin-1-yl)-N-(4-(trifluoromethyl)phenyl)acetamide], the inhibitory constant (Ki) (Lab A, read-out: Rhesus PDE2 Ki (nM) Lab A) was more than 1000 nM. In the case of `CC(c1ccc(C(F)(F)F)cc1)n1nc(CO)c2c(=O)[nH]c(-c3cnn(C)c3)nc21` (racemic) [Example 295, 3-(Hydroxymethyl)-6-(1-methyl-1H-pyrazol-4-yl)-1-{1-[4-(trifluoromethyl)phenyl]ethyl}-1,5-dihydro-4H-pyrazolo[3,4-d]pyrimidin-4-one], the Ki under setting [1] was more than 2970 nM.

For `Cc1nc2c(c(CN)nn2C(C)c2ccc(C(F)(F)F)cc2)c(=O)[nH]1` (single isomer, unassigned) [Example 275], under setting [1], the inhibition constant (Ki) was determined as 987 nM.

Take `Cc1nc2c(c(CO)nn2C(c2ccc(C(F)(F)F)c(F)c2)C(C)C)c(=O)[nH]1` (single isomer, unassigned) [Example 86, (R)- or (S)-1-(1-(3-Fluoro-4-(trifluoromethyl)phenyl)-2-methylpropyl)-3-(hydroxymethyl)-6-methyl-1H-pyrazolo[3,4-d]pyrimidin-4(5H)-one]: the Ki under setting [1] turned out to be 436 nM. `Cc1nc2c(c(C)nn2C(C)C(C)(O)c2ccc(C(F)(F)F)cc2)c(=O)[nH]1` (stereo not shown) [Example 333, 1-(3-Hydroxy-3-(4-(trifluoromethyl)phenyl)butan-2-yl)-3,6-dimethyl-1H-pyrazolo[3,4-d]pyrimidin-4(5H)-one]: the Ki under setting [1] was approximately 29000 nM. On the same count and under the same terms, next, `COCc1nn(C(C)c2ccc(C(F)(F)F)cc2)c2nc(C)[nH]c(=O)c12` (single isomer, unassigned) [Example 278]: 768 nM; `COc1ccc(Cc2nc3c(c(CF)nn3C(C)c3ccc(C(F)(F)F)cc3)c(=O)[nH]2)cc1` (single isomer, unassigned) [Example 218, (R)- or (S)-3-(Fluoromethyl)-6-(4-methoxybenzyl)-1-(1-(4-(trifluoromethyl)phenyl)ethyl)-1H-pyrazolo[3,4-d]pyrimidin-4(5H)-one]: 107 nM.

The term Ki denotes a dissociation constant, usually derived from enzyme kinetics or from competition with a known ligand.
